From publication PMC3447753, “Relacin, a Novel Antibacterial Agent Targeting the Stringent Response” (PLoS Pathogens, 2012)

Biological target: T1, Rel/Spo (D. radiodurans) (Deinococcus radiodurans, UniProt Q9RTC7)
T1 construct: gene DR_1838; full length, His-tagged (anti-His detection), expressed in E. coli BL21 CodonPlus
T1 sequence (Q9RTC7 1-787): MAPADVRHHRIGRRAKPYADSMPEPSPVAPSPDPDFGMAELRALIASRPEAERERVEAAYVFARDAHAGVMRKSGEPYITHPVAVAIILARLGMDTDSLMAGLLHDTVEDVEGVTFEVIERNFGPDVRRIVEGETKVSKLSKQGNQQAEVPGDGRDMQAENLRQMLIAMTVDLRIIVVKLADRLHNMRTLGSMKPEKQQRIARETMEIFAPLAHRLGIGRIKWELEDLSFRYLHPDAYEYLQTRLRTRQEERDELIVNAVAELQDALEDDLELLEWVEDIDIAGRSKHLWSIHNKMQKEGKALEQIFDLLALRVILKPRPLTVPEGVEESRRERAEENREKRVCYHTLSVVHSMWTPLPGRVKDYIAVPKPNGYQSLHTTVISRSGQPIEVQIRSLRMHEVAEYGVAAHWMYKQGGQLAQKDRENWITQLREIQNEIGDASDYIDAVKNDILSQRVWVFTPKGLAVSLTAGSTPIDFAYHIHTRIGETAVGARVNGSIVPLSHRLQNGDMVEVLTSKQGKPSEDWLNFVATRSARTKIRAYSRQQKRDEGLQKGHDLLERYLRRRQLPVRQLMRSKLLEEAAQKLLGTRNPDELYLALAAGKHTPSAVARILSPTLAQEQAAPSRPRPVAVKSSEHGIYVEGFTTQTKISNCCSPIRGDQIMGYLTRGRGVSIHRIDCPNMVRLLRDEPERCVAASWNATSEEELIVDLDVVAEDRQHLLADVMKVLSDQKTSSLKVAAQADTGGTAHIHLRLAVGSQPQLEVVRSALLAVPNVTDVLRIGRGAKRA
Assay: (p)ppGpp synthesis from alpha-32P-GTP, PEI-TLC autoradiography
Type: biochemical
Conditions: 0.5 mM GTP, 4 mM ATP, 10 mM MgCl2, pH 7.4, isolated ribosomes; inhibitor concentration only in figure

Q: With CC(C)C(=O)Nc1nc2c(ncn2[C@H]2C[C@H](OC(=O)NCC(=O)NCC(=O)O)[C@@H](COC(=O)NCC(=O)NCC(=O)O)O2)c(=O)[nH]1 [Relacin] as the molecule, how does the “% inhibition at highest Relacin concentration” value read?
A: ~ 80%
